In patent US12503451B2, “2-arylthiazole derivative or salt thereof, preparation method therefor, and pharmaceutical composition comprising same” (HEXAPHARMATEC CO., LTD., priority 2020, dated 2025):

Columns and labels:
[1] = tested on: dimethylnitrosamine (DMN)-induced liver injury male SD rats; test: Liver function-improving activities by oral administration in the liver injury model (1); format: in vivo, rat; details: 25 mg/kg oral once a day with DMN
Method: The compounds according to the present invention were orally administered to dimethylnitrosamine (DMN)-induced liver injury male SD rats for 3 weeks, so as to evaluate liver function-improving activities. Specifically, 7-week-old male SD rats (Orient Bio, Korea) were accommodated to the laboratory environment at room temperature for 7 days. General symptoms were observed and then only healthy animals were used for the experiment. […] DMN was dissolved in purified water and then administered intraperitoneally at the dose of 10 mg/kg for 3 consecutive days per week (3 times per week, for 4 weeks). […] The collected blood was injected into a vacutainer tube containing a clot activator and then allowed to stand at room temperature for about 20 minutes so as to coagulate each blood sample. After centrifugation for 10 minutes, the resulting serums were subjected to blood-biochemical tests. The results obtained from the measurements were subject to group comparison, through parametric multiple comparisons or non-parametric multiple comparisons, with SPSS. When P<0.05, it was determined to be statistically significant.

[2] = tested on: N2a cells; test: Autophagy flux by electron microscope imaging; format: cell-based, mouse; details: 10 μM; 24 hours
Method: N2a cells (ATCC, CCL-131, mouse neuroblastoma cell line) (3×10^4 cells) and a medium (DMEM (Dulbecco's modified Eagle's medium, Gibco, 11995-065) supplemented with 5% heat-inactivated fetal bovine serum, FBS; Gibco, 16000-044) and 50 μg/ml penicillin-streptomycin (Gibco, 15140-122) were added to each well of a 6-well plate and incubated overnight at 37° C. in a CO2 incubator. The compound of Example 29 (5 μM) and rapamycin (10 μM) were respectively treated and then incubated at 37° C. in a CO2 incubator for 24 hours. Three wells per each group were subject to electron microscope block formation and then pre-fixation, post-fixation, dehydration, substitution, and embedding were carried out according to a flat-embedding method. After ultra-thin sections having a thickness of 70 nm were prepared, heavy metal staining (uranyl acetate, lead citrate) was carried out on the each section, which was photographed through a mosaic imaging technique for imaging the entire cells. In addition, the results obtained by measuring the numbers of the total autophagies (autophagic vesicles), autophagosomes, and autolysosomes per cell according to the treatment groups are shown in Table 3 below. In Table 3 below, the control means the untreated control.

[3] = tested on: primary mouse cortical neuron cells; test: Autophagic vesicle formation (CYTO-ID Autophagy Detection Kit); format: cell-based; details: 10 μM; 24 hours; untreated control = 1
Method: Autophagy lysosomal pathway (ALP) activation by the compounds of the present invention was verified, through measuring the degree of autophagic vesicle formation in neuron cells with the CYTO-ID™ Autophagy Detection Kit (ENZ-51031-K200, Enzo Life Sciences, Inc.). Neuron cells (i.e., primary mouse cortical neuron cells) were isolated from mice using an enzymatic digest method. Specifically, primary mouse cortical neuron cells were isolated by incubating the cortice tissues derived from 16 day embryonic C57BL6 mice, at 37° C. for 30 minutes, with 20 U/ml papain (Worthington Biochemical Corporation, LK003176) and 0.005% DNase I (Worthington Biochemical Corporation, LK003170).
The primary mouse cortical neuron cells (8×10^4 cells) and a medium (a neural cell culture media containing 2 mM L-glutamine (Gibco, 25030-081), N2 supplement (Gibco, 17502-048), B27 supplement (Gibco, 17504-044), and 50 μg/ml penicillin-streptomycin (Gibco, 15140-122)) were added to each well of a 96-well plate and then incubated overnight at 37° C. in a CO2 incubator. The compound of Example 10 (5 μM), the compound of Example 29 (5 μM), and rapamycin (10 μM) were respectively treated to the cells, which were incubated at 37° C. in a CO2 incubator for 24 hours. After each well was washed with 1×Assay Buffer (Enzo Life Science, ENZ-51031-K200), 0.2 μl of Cyto-ID autophagy dye and 0.1 μl of Hoechst 33342 were treated to the cells, which were incubated at 37° C. in a CO2 incubator for 30 minutes. After each well was washed with 1×Assay Buffer (Enzo Life Science, ENZ-51031-K200), the fluorescence values of Cyto-ID (EX: 480 nm, EM: 530 nm) and Hoechst 33342 (EX: 340 nm, EM: 480 nm) were respectively measured with a fluorometer. Three wells were tested for each group. After normalization was carried out through dividing the Cyto-ID fluorescence value of each well by Hoechst 33342 fluorescence value, each relative intensity was calculated by setting that of the untreated control to 1.

[4] = tested on: dimethylnitrosamine (DMN)-induced liver injury male SD rats; test: Liver function-improving activities by oral administration in the liver injury model (2); format: in vivo, rat; details: for Inhibitory activity against liver fibrosis (in words) / Degenerative hepatocyte numbers / Inflammatory cell numbers / Collagen fiber occupied regions: 25 mg/kg oral 4 weeks; for Inhibitory activity against liver fibrosis (in words): histology; for Degenerative hepatocyte numbers / Inflammatory cell numbers: H&E staining of liver; for Degenerative hepatocyte numbers / Inflammatory cell numbers / Collagen fiber occupied regions: autopsy 24 hours after last administration; for Collagen fiber occupied regions: Masson's trichrome staining of liver
Method: Specifically, 7-week-old male SD rats (Orient Bio, Korea) were accommodated to the laboratory environment at room temperature for 7 days. General symptoms were observed and then only healthy animals were used for the experiment. The rats were divided into 5 groups (n=10 for each group), i.e., the normal control group, the group to which only DMN is administered, and the group to which both the compound of the present invention (the compound of Example 23, 26, or 29) and DMN are administered. DMN was dissolved in purified water and then administered intraperitoneally at the dose of 10 mg/kg for 3 consecutive days per week (3 times per week, for 4 weeks). Blood samples were collected after the completion of the fourth-week liver injury inducement and then the serum ALT (Alanine Transaminase) values and the serum AST (Aspartate Transaminase) values were measured so as to confirm the liver injury thereof. […] Blood samples were collected on Day 0 (1 day after the completion of the fourth-week liver injury inducement) and Day 7, 14, 21 and 28 after the administration of the test materials. The collected blood was injected into a vacutainer tube containing a clot activator and then allowed to stand at room temperature for about 20 minutes so as to coagulate each blood sample. After centrifugation for 10 minutes, the resulting serums were subjected to blood-biochemical tests. In addition, at 24 hours after the last administration, an autopsy for hepatectomy and fixation was performed to prepare the tissue specimens thereof. After preparing the slides with the tissue specimens, hematoxylin and eosin (H&E) staining was performed thereon for microscopic observation of damages to liver tissue and inflammatory cell infiltrations in liver tissues. In addition, Masson's trichrome staining was also performed thereon for microscopic observation of collagen fiber depositions in liver tissues. The results obtained from the measurements were subject to group comparison, through parametric multiple comparisons or non-parametric multiple comparisons, with SPSS. When P<0.05, it was determined to be statistically significant. […] Therefore, it can be confirmed that the compounds of the present invention have excellent treating activity against liver fibrosis. […] From the results of FIG. 4, the degrees of damage to liver tissue and inflammatory cell infiltration in liver tissues were measured. And also, from the results of FIG. 4, the degree of collagen fiber deposition in liver tissues was measured.

[5] = 0 week (Day 0, before administration)
[6] = 0 week (Day 0, after 4 weeks DMN, before administration)
[7] = 1 week, 25 mg/kg oral once a day after 4 weeks DMN
[8] = 2 weeks, 25 mg/kg oral once a day after 4 weeks DMN
[9] = 3 weeks, 25 mg/kg oral once a day after 4 weeks DMN
[10] = 4 weeks, 25 mg/kg oral once a day after 4 weeks DMN

SMILES: Cc1nc(-c2ccc(OCC(C)C)c(C#N)c2)sc1C(=O)NCCN(C(C)C)C(C)C.Cl [Example 2, N-(2-(diisopropylamino)ethyl)-2-(3-cyano-4-isobutoxyphenyl)-4-methylthiazole-5-carboxamide hydrochloride]
- ALT values (average value) [1, 5]: 70.76 U/L
- AST values (average value) [1, 5]: 138.50 U/L
- ALT values (average value) ([1]; 1 week): 93.68 U/L
- AST values (average value) ([1]; 1 week): 180.72 U/L
- ALT values (average value) ([1]; 2 weeks): 107.06 U/L
- AST values (average value) ([1]; 2 weeks): 218.90 U/L
- ALT values (average value) ([1]; 3 weeks): 117.02 U/L
- AST values (average value) ([1]; 3 weeks): 231.54 U/L

SMILES: CO[C@H]1C[C@@H]2CC[C@@H](C)[C@@](O)(O2)C(=O)C(=O)N2CCCC[C@H]2C(=O)O[C@H]([C@H](C)C[C@@H]2CC[C@@H](O)[C@H](OC)C2)CC(=O)[C@H](C)/C=C(\C)[C@@H](O)[C@@H](OC)C(=O)[C@H](C)C[C@H](C)/C=C/C=C/C=C/1C [Rapamycin, rapamycin, reference compound]
- Numbers of the autophagy per cell: Autolysosome [2]: 7.6
- Numbers of the autophagy per cell: Autophagic vesicles [2]: 13.3
- Numbers of the autophagy per cell: Autophagosome [2]: 4.1
- Cyto-ID fluorescence value (relative intensity) [3]: 1.668

SMILES: CCN(CC)CCOc1ccc(-c2nc(C)c(C(=O)NCCN3CCOCC3)s2)cc1C#N.Cl.Cl [Example 26, N-(2-(4-morpholino)ethyl)-2-(4-(2-diethylamino)ethoxy-3-cyanophenyl)-4-methylthiazole-5-carboxamide hydrochloride]
- ALT values (average value) [4, 6]: 199.51 U/L
- AST values (average value) [4, 6]: 322.72 U/L
- Inhibitory activity against liver fibrosis (in words) [4]: excellent inhibitory activity against liver fibrosis
- ALT values (average value) [4, 7]: 134.97 U/L
- AST values (average value) [4, 7]: 153.48 U/L
- ALT values (average value) [4, 8]: 70.09 U/L
- AST values (average value) [4, 8]: 145.71 U/L
- ALT values (average value) [4, 9]: 62.81 U/L
- AST values (average value) [4, 9]: 138.76 U/L
- AST value compared with the normal control group (in words) ([4]; 4 weeks after the administration, 25 mg/kg oral): equivalent to that of the normal control group
- ALT values (average value) [4, 10]: 59.12 U/L
- AST values (average value) [4, 10]: 114.45 U/L
- Degenerative hepatocyte numbers [4]: 259.14 ± 42.56 cells/1000 cells
- Inflammatory cell numbers [4]: 90.00 ± 20.67 cells/mm^2
- Collagen fiber occupied regions [4]: 10.75 ± 2.17 %/mm^2

SMILES: CCN(CC)CCOc1ccc(-c2nc(C)c(C(=O)NCCN(C(C)C)C(C)C)s2)cc1C#N.Cl.Cl [Example 23, N-(2-(diisopropylamino)ethyl)-2-(4-(2-diethylamino)ethoxy-3-cyanophenyl)-4-methylthiazole-5-carboxamide hydrochloride]
- ALT values (average value) [1, 5]: 67.64 U/L
- AST values (average value) [1, 5]: 145.10 U/L
- ALT values (average value) ([1]; 1 week): 94.40 U/L
- AST values (average value) ([1]; 1 week): 208.56 U/L
- ALT values (average value) ([1]; 2 weeks): 97.64 U/L
- AST values (average value) ([1]; 2 weeks): 221.58 U/L
- ALT values (average value) ([1]; 3 weeks): 101.04 U/L
- AST values (average value) ([1]; 3 weeks): 203.44 U/L
- ALT values (average value) [4, 6]: 198.30 U/L
- AST values (average value) [4, 6]: 395.34 U/L
- Inhibitory activity against liver fibrosis (in words) [4]: excellent inhibitory activity against liver fibrosis
- ALT values (average value) [4, 7]: 104.22 U/L
- AST values (average value) [4, 7]: 169.11 U/L
- ALT values (average value) [4, 8]: 65.66 U/L
- AST values (average value) [4, 8]: 140.57 U/L
- ALT values (average value) [4, 9]: 60.95 U/L
- AST values (average value) [4, 9]: 128.30 U/L
- ALT values (average value) [4, 10]: 52.93 U/L
- AST values (average value) [4, 10]: 125.15 U/L
- Degenerative hepatocyte numbers [4]: 319.14 ± 44.66 cells/1000 cells
- Inflammatory cell numbers [4]: 101.43 ± 16.53 cells/mm^2
- Collagen fiber occupied regions [4]: 12.44 ± 2.03 %/mm^2
